The experiment relates to IL-2 production. As to the kind of experiment: Inhibition of IL-2 production in PHA-activated Jurkat cells (ELISA). The note with it: Homo sapiens, PHA 2.5 μg/mL, 20 hours, IL-2 ELISA. It is filed as cell-based. On the procedure:
Jurkat cells were placed in a 96 well plate (0.5 million cells per well in 1% FBS medium) then a test compound of this invention was added at different concentrations. After 10 minutes, the cells were activated with PHA (final concentration 2.5 μg/mL) and incubated for 20 hours at 37° C. under CO2. The final volume was 200 μL. Following incubation, the cells were centrifuged and the supernatants were collected and stored at −70° C. prior to assaying for IL-2 production. A commercial ELISA kit (IL-2 Eli-pair, Diaclone Research, Besancon, France) was used to detect production of IL-2, from which dose response curves were obtained. The IC50 value was calculated as the concentration at which 50% of maximum IL-2 production after stimulation was inhibited versus a non-stimulation control.
Background: In an ELISA, binding on a coated surface is turned into a signal by an enzyme label.
`COc1ccc2c(c1)nc(C(F)(F)F)n2-c1cnc(NC(=O)c2cccc(I)c2)cn1` [Compound 112, 3-Iodo-N-[5-(5-methoxy-2-trifluoromethyl-benzoimidazol-1-yl)-pyrazin-2-yl]-benzamide] gave a 50% inhibitory concentration (IC50) of 173 nM. Compound `COc1ccc2c(c1)nc(C(F)(F)F)n2-c1cnc(NC(=O)c2cccc(C(F)(F)F)c2)cn1` [Compound 125, N-[5-(5-Methoxy-2-trifluoromethyl-benzoimidazol-1-yl)-pyrazin-2-yl]-3-trifluoromethyl-benzamide] came in with an IC50 of 780 nM. Turning to `CCCc1ccc(C(=O)Nc2cnc(-n3c(C(F)(F)F)nc4cc(OC)ccc43)cn2)cc1` [Compound 109, N-[5-(5-Methoxy-2-trifluoromethyl-benzoimidazol-1-yl)-pyrazin-2-yl]-4-propyl-benzamide], the IC50 was found to be 279 nM. Compound `CCc1ccc(C(=O)Nc2cnc(-n3c(C(F)(F)F)nc4cc(OC)ccc43)cn2)cc1` [Compound 106, 4-Ethyl-N-[5-(5-methoxy-2-trifluoromethyl-benzoimidazol-1-yl)-pyrazin-2-yl]-benzamide] yielded an IC50 of 2 nM. Compared with the last compound, the IC50 is about 140-fold lower.

In turn, `COc1ccc2c(c1)nc(C(F)(F)F)n2-c1cnc(NC(=O)c2ccc(C)cc2)cn1` [Compound 118, N-[5-(5-Methoxy-2-trifluoromethyl-benzoimidazol-1-yl)-pyrazin-2-yl]-4-methyl-benzamide] yielded an IC50 of 40 nM. As for `COc1ccc2c(c1)nc(C(F)(F)F)n2-c1cnc(NC(=O)c2ccc(Cl)cc2OC)cn1` [Compound 134, 4-Chloro-2-methoxy-N-[5-(5-methoxy-2-trifluoromethyl-benzoimidazol-1-yl)-pyrazin-2-yl]-benzamide], the figure is more than 1000 nM; as for `COC(=O)c1ccc2c(c1)nc(C(F)(F)F)n2-c1cnc(NC(=O)c2c(F)cccc2F)cn1` [Compound 25, 1-[5-(2,6-Difluoro-benzoylamino)-pyrazin-2-yl]-2-trifluoromethyl-1H-benzoimidazole-5-carboxylic acid methyl ester], 29 nM. On to `COc1ccc2c(c1)nc(C(F)(F)F)n2-c1cnc(NC(=O)c2ccc(Cl)cc2F)cn1` [Compound 9, 4-Chloro-2-fluoro-N-[5-(5-methoxy-2-trifluoromethyl-benzoimidazol-1-yl)-pyrazin-2-yl]-benzamide], for which the IC50 was 55 nM. This IC50 lies about 1.9-fold higher than the previous one. The compound `COc1ccc2c(c1)nc(C(F)(F)F)n2-c1cnc(NCc2c(F)cccc2Cl)cn1` [Compound 100, (2-Chloro-6-fluoro-benzyl)-[5-(5-methoxy-2-trifluoromethyl-benzoimidazol-1-yl)-pyrazin-2-yl]-amine] showed an IC50 of 132 nM. As to `COc1ccc2c(c1)nc(C(F)(F)F)n2-c1cnc(NC(=O)c2cc(Cl)ccc2OC)cn1` [Compound 152, 5-Chloro-2-methoxy-N-[5-(5-methoxy-2-trifluoromethyl-benzoimidazol-1-yl)-pyrazin-2-yl]-benzamide], the IC50 is more than 1000 nM. In turn, `COc1ccc2c(c1)nc(C(F)(F)F)n2-c1cnc(NC(=O)c2cc(C)cc(C)c2)cn1` [Compound 121, N-[5-(5-Methoxy-2-trifluoromethyl-benzoimidazol-1-yl)-pyrazin-2-yl]-3,5-dimethyl-benzamide] yielded an IC50 of more than 1000 nM. The compound `COc1ccc2c(c1)nc(C(F)(F)F)n2-c1cnc(NC(=O)c2cccc([N+](=O)[O-])c2)cn1` [Compound 98, N-[5-(5-Methoxy-2-trifluoromethyl-benzoimidazol-1-yl)-pyrazin-2-yl]-3-nitro-benzamide] returned an IC50 of 104 nM. As for `COc1ccc2c(c1)nc(C(F)(F)F)n2-c1cnc(NC(=O)c2ccc(F)cc2)cn1` [Compound 86, 4-Fluoro-N-[5-(5-methoxy-2-trifluoromethyl-benzoimidazol-1-yl)-pyrazin-2-yl]-benzamide], the IC50 came out at 150 nM.

`CCCCc1ccc(C(=O)Nc2cnc(-n3c(C(F)(F)F)nc4cc(OC)ccc43)cn2)cc1` [Compound 117, 4-Butyl-N-[5-(5-methoxy-2-trifluoromethyl-benzoimidazol-1-yl)-pyrazin-2-yl]-benzamide] yielded an IC50 of 81 nM.

A word on the IC50: it is the point on the concentration scale where inhibition reaches its midpoint.

These data come from patent US8119643B2, “Benzoimidazolyl-pyrazine compounds for inflammation and immune-related uses” (Synta Pharmaceuticals Corp., priority 2006, dated 2012).
